Experimental data from ChEMBL document CHEMBL1201862, “PubChem BioAssay data set” (2004).
Calls of active or inactive are those of the source.

What was measured:
[1] = P. falciparum Dd2 growth inhibitors, dose response, SYBR Green, cherry-picked samples (AID 1159567); format: functional, cell-based
[2] = toxicity to human hepatoma HepG2 cells – cell-based, cherry-picked samples, cytotoxicity control, dose response (AID 1159577); format: functional
[3] = Trypanosoma cruzi growth suppression in host cells – NIH3T3 host cells, beta-gal luminescence, confirmation (AID 2044); format: functional, cell-based;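 note: intracellular parasites grown in NIH/3T3 mouse fibroblasts as host cells; luminescent beta-galactosidase reporter signal from transgenic T. cruzi replicating inside host cells; inhibitors lower the luminescence signal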
[4] = NIH3T3 cell viability loss – ATP luminescence, mouse fibroblasts, counter-screen, dose response (AID 2010); format: functional, cell-based;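 note: cells exposed to compound for about 90 hours before reading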
[5] = target: Induced myeloid leukemia cell differentiation protein Mcl-1 (Homo sapiens, UniProt Q07820); format: functional
Protein Tat = Protein Tat (Human immunodeficiency virus type 1 group M subtype B (isolate HXB2)(HIV-1), UniProt P04608); format: functional;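 note: tat binding to TAR RNA read out by fluorescence polarization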
[6] = viability loss in THP-1 monocytes – THP-1 cells, cytotoxicity control for Vif-APOBEC3G degradation inhibitor project, dose response (AID 1117359); format: functional; conditions: THP-1
[7] = HIV-1 Vif–A3G interaction blockers – biochemical, TR-FRET, GST-Vif 1-94, biotin-A3G peptide, dose response retest, primary screen (AID 1117319); format: functional;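 note: TR-FRET signal of purified GST-Vif binding a biotinylated A3G peptide; inhibitors lower the FRET signal by blocking Vif and A3G binding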
Major prion protein = Major prion protein (Homo sapiens, UniProt P04156); format: functional, cell-based
[8] = growth inhibition of yeast DHODH-expressing 3D7 parasites – SYBR Green, dry powder samples, dose response (AID 1159570); format: functional, cell-based;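 note: parasite growth measured after 72 hours of compound exposure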
[9] = toxicity to human HepG2 hepatoma cells – cell-based, plate reader, dry powder samples, cytotoxicity control, dose response (AID 1159569); format: functional;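 note: inhibitor potency with signal falling toward the positive control level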
[10] = Dd2 malaria parasite growth inhibition potency – SYBR Green, dry powder samples, dose response (AID 1159566); format: functional, cell-based;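 note: potency for growth inhibition with lower SYBR green DNA signal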
[11] = growth inhibition of PfATP4-mutant resistant parasites – NITD609-resistant line, SYBR Green, dry powder, dose response (AID 1159571); format: functional, cell-based;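 note: parasites synchronized at ring stage by sorbitol before testing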
[12] = cytotoxicity in MITF-independent A375 cells – cell-based, CellTiter-Glo luminescence, dry powder, set 4, counter-screen for MITF inhibitor project, dose response (AID 624364); format: functional; conditions: A-375;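 note: A375 melanoma cells are MITF independent so this is a counter screen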
[13] = viability loss in MITF-independent A375 cells – cell-based, CellTiter-Glo luminescence, dry powder, set 2, counter-screen for MITF inhibitor project, dose response (AID 624489); format: functional; conditions: A-375;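 note: actives are compounds lowering A375 viability meaning general cytotoxicity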
Leucine aminopeptidase = target: T1, Leucine aminopeptidase (Plasmodium falciparum 3D7, UniProt Q8IL11); assay: P. falciparum M17LAP inhibitors, primary screen, biochemical, fluorogenic H-Leu-NHMec substrate, 1536-well (AID 1619); format: functional
T1 sequence (Q8IL11 whole entry): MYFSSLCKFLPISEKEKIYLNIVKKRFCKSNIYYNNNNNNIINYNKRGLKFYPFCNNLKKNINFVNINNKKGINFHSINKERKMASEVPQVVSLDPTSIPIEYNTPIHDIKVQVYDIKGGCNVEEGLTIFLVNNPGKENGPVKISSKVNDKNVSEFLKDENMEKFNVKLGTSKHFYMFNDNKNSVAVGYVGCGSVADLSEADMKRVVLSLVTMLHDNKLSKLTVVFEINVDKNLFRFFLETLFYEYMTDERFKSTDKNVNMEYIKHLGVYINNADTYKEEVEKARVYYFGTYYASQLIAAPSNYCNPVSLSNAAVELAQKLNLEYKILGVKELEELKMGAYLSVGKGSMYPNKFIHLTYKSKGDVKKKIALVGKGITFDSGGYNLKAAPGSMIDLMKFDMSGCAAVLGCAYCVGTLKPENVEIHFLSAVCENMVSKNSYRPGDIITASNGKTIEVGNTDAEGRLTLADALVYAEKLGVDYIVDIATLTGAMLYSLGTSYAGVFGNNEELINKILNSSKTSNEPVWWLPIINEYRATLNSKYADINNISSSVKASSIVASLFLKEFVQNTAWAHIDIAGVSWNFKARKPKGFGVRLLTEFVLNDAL

Aminopeptidase N = target: T2, Aminopeptidase N (Plasmodium falciparum FcB1/Columbia, UniProt O96935); assay: malaria alanyl aminopeptidase activity blockers – biochemical, fluorogenic H-Leu-NHMec substrate, 1536-well (AID 1445); set-up: species or system Plasmodium falciparum 3D7, 3D7
T2 sequence (O96935 whole entry): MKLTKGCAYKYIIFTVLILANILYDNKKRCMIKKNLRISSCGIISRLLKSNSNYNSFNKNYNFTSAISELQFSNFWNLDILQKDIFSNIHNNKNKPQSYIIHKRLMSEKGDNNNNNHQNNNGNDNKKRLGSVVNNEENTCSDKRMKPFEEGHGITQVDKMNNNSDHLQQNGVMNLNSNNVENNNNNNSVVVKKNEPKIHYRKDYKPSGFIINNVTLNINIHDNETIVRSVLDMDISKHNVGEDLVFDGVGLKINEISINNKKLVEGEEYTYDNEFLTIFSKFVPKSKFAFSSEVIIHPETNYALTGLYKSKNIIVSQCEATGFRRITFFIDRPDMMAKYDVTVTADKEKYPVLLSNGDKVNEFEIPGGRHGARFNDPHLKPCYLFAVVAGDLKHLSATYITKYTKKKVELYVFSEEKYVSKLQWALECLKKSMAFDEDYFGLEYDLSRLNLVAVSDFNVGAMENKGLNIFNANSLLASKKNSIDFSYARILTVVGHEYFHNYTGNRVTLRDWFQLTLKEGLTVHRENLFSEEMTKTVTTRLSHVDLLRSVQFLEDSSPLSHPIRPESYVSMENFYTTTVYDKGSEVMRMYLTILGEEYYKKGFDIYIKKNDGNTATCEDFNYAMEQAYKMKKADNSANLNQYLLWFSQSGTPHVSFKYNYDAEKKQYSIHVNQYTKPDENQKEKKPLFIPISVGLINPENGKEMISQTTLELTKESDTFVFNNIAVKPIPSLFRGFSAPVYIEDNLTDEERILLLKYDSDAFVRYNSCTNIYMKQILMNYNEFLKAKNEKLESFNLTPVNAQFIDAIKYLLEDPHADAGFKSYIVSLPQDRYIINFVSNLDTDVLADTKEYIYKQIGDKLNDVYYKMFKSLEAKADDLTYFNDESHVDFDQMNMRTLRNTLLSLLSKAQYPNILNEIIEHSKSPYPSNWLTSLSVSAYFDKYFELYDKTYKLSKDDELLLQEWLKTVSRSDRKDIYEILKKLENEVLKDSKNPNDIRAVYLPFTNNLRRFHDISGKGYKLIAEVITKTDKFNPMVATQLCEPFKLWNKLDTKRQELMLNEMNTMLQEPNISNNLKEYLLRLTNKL

[14] = target: T3, Heat shock factor protein 1 (Mus musculus, UniProt P38532); assay: decrease of HSF1-responsive luciferase luminescence – cell-based, NIH3T3, dose retest, confirmation (AID 2382); format: functional;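 note: NIH3T3 fibroblasts with HSF1-driven luciferase reporter stressed by proteasome inhibitor MG132; luminescence from HSF1-driven luciferase expression after 8 hours of MG132 stress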
T3 sequence (P38532 whole entry): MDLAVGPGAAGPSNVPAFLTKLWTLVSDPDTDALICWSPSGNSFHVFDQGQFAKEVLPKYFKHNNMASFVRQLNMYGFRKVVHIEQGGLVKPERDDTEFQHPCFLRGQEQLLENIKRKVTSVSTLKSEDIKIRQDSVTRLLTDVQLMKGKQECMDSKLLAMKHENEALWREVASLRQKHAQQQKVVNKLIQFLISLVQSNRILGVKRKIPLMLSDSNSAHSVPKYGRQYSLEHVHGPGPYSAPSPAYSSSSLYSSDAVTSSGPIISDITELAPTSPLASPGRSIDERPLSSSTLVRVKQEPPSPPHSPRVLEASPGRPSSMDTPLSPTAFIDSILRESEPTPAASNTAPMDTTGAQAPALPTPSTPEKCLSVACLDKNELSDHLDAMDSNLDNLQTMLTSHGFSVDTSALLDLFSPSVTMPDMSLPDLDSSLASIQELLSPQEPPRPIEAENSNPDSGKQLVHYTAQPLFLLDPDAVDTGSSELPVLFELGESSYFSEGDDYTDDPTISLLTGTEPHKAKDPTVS

Albumin = Albumin (Bos taurus, UniProt P02769); assay: Counterscreen for inhibitors of T-cell receptor (TCR)-CD3 interaction: Fluorescence-based biochemical high throughput dose response assay to identify inhibitors of T-cell receptor (TCR)-CD3 interaction using a TAMRA-labeled BSA probe.; format: functional
[15] = target: Endoplasmic reticulum aminopeptidase 1 (Homo sapiens, UniProt Q9NZ08); assay: inhibition of human ERAP1 enzyme activity – biochemical, cherry-pick, set 2, plate reader, dose response (AID 743314)
[16] = HGIII-sPLA2 enzyme inhibition potency – biochemical, QFRET, IC50, dose response (AID 743457);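 note: green fluorescence rise as the enzyme cleaves BODIPY PC-A2 in liposomes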
[17] = rise of 2N DNA cells, HeLa – IC50, dose response (AID 1117349); format: functional, cell-based
[18] = CellTiter-Glo luminescence survival assay, SW480 colon tumor line, concentration-response curve, half-maximal inhibitory concentration (AID 1117338); format: functional
[19] = RKO cell viability reduction, dose response, CellTiter-Glo luminescence (AID 1117322); format: functional
[20] = cytotoxicity toward HCT116 cells – cell-based, CellTiter-Glo luminescence, IC50, dose response (AID 1117332); format: functional; conditions: HCT-116
[21] = SNU-C1 cell viability reduction, dose response, CellTiter-Glo luminescence (AID 1117323); format: functional, cell-based
[22] = cytotoxicity toward Colo320 cells – cell-based, CellTiter-Glo luminescence, IC50, dose response (AID 1117334); format: functional; conditions: COLO 320
[23] = rise of 4N DNA cells, HeLa – IC50, dose response (AID 1117351); format: functional, cell-based
[24] = cytotoxicity toward HT-29 cells – cell-based, CellTiter-Glo luminescence, IC50, dose response (AID 1117330); format: functional
[25] = Reduced DLD-1 viability, concentration-response, CellTiter-Glo luminescence (AID 1117352); format: functional
[26] = HCT116 cell viability decrease, GSK3B pretreatment – CellTiter-Glo, IC50, dose response (AID 1117339); format: functional; conditions: HCT-116

In the case of `CCCC#Cc1ccc([C@H]2[C@H](CO)N3CCCCN(CC4CCOCC4)C[C@@H]23)cc1`, the AC50 [1] is reported as 3.68 µM (active) and the AC50 [2] is reported as 26.9 µM (active).

For `COc1ccccc1C1=Nc2cccc3cccc(c23)N1`, the EC50 [3] was 6.83 µM (active), the EC50 [4] was > 30 µM (not active) and the IC50 [5] was < 400 nM (not active). The IC50 (Protein Tat) was > 100 µM (inconclusive), the CC50 [6] was > 40 µM (active) and the IC50 [7] was > 63.3 µM (active).

For `Cc1nc(SCC(=O)NNC(=O)c2ccc(F)cc2)c2ccccc2n1`, the IC50 (Major prion protein) was 2.26 µM (active) and the IC50 (cells) was > 138 µM (inactive).

In the case of `C[C@@H]1CN([C@H](C)CO)C(=O)c2c(c3ccccc3n2C)-c2ccccc2CO[C@@H]1CN(C)C(=O)[C@H](C)c1ccccc1`, the AC50 [8] is reported as 1.66 µM (active), the AC50 [9] is reported as 45.5 µM (active) and the AC50 [1] is reported as 1.39 µM (active). The AC50 [10] was 1.1 µM (active) and the AC50 [11] was 1.33 µM (active).

With `O=C(NC1=C(c2ccc(Oc3ccccc3)cc2)C(=O)c2ccccc2C1=O)c1ccccc1` the AC50 [12] was > 70 µM (inactive) and the AC50 [13] was > 70 µM (inactive).

With `CC/C(NNC(=O)c1ccccc1O)=C1/C(=O)NC(=O)N(Cc2ccccc2)C1=O` the IC50 (Leucine aminopeptidase) was 47.3 µM (active), the IC50 (Aminopeptidase N) was 7.8 µM (active) and the EC50 [14] was 30.2 µM (active). The IC50 (Albumin) was > 94.1 µM (inactive).

For `O=c1ccc2cc(O[C@@H]3O[C@H](CO)[C@@H](O)[C@H](O)[C@H]3O)c(O)cc2o1`, the AC50 [15] was 1.72 µM (active).

With `Cc1cc(C(=O)NN=C(S)NC2CCCCC2)cs1` the IC50 [16] was > 122 µM (inactive).

In the case of `CCCCOc1ccc(C(=O)C2=C(O)C(=O)N(Cc3cccnc3)C2c2ccncc2)c(C)c1` (stereo not given), the IC50 (Major prion protein) is reported as 4.21 µM (active) and the IC50 (cells) is reported as > 138 µM (inactive).

For `O=[N+]([O-])c1ccc(Oc2ccc(N=C=S)cc2)cc1` [NITROSCANATE], the IC50 [17] was > 10 µM (inactive), the IC50 [18] was 1.63 µM (active) and the IC50 [19] was 2.34 µM (active). For the same compound, the IC50 [20] was 2.77 µM (active), the IC50 [21] was 4.33 µM (active) and the IC50 [22] was 1.46 µM (active). For the same compound, the IC50 [23] was > 10 µM (inactive), the IC50 [24] was 1.07 µM (active) and the IC50 [25] was 2.1 µM (active). For the same compound, the IC50 [26] was 1.47 µM (active).
